From ChEMBL document CHEMBL5338720, “Targeting σ2R/TMEM97 with novel aminotetralins” (Eur J Med Chem, 2022)
Values belong to the compound of their own block, whether it stands above or below them.

Experiments:
[1] = biological target: T1, Sigma intracellular receptor 2 (Homo sapiens, UniProt Q5BJF2); experiment: Displacement of [3H]-ditolylguanidine from human sigma 2 receptor/TMEM97 transfected in HEK293 cells assessed as inhibition constant in the presence of (+)-pentazocine by competition binding assay; format: cell-based
[2] = biological target: T2, Sigma non-opioid intracellular receptor 1 (Homo sapiens, UniProt Q99720); experiment: Displacement of [3H](+)-pentazocine from human sigma 1 receptor transfected in HEK293 cells assessed as inhibition constant by competition binding assay; format: cell-based
[3] = biological target: Sigma non-opioid intracellular receptor 1 (Cavia porcellus, UniProt Q60492); experiment: Displacement of [3H](+)-pentazocine from sigma 1 receptor in guinea pig brain assessed as inhibition constant by competition binding assay; format: tissue-based
[4] = biological target: T3, Sigma intracellular receptor 2 (Rattus norvegicus, UniProt Q5U3Y7); experiment: Displacement of [3H]-ditolylguanidine from sigma 2 receptor/TMEM97 in rat PC-12 cells assessed as inhibition constant in the presence of (+)-pentazocine by competition binding assay; format: cell-based
T3 sequence (Q5U3Y7 whole entry): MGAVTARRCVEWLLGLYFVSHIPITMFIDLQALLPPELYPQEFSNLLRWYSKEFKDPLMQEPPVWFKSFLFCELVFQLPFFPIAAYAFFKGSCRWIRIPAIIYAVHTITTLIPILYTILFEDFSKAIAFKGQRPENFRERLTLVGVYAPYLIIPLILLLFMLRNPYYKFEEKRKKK

P-glycoprotein (MDR1) = experiment: Efflux ratio of permeability in MDCK-MDR1 cells expressing P-glycoprotein; format: ADME, cell-based, Canis lupus familiaris; settings: dog
D(2) dopamine receptor = D(2) dopamine receptor (Homo sapiens, UniProt P14416); experiment: Binding affinity to human dopamine D2 receptor assessed as inhibition constant
[5] = biological target: Beta-2 adrenergic receptor (Homo sapiens, UniProt P07550); experiment: Binding affinity to human beta 2 adrenergic receptor assessed as inhibition constant
[6] = biological target: Beta-3 adrenergic receptor (Homo sapiens, UniProt P13945); experiment: Binding affinity to human beta 3 adrenergic receptor assessed as inhibition constant
Translocator protein = Translocator protein (Homo sapiens, UniProt P30536); experiment: Binding affinity at human PBR assessed as inhibition constant
Mu-type opioid receptor = Mu-type opioid receptor (Homo sapiens, UniProt P35372); experiment: Binding affinity at human MOR assessed as inhibition constant
[7] = Binding affinity to human Ca2+ ion channel assessed as inhibition constant
[8] = biological target: Beta-1 adrenergic receptor (Homo sapiens, UniProt P08588); experiment: Binding affinity to human beta 1 adrenergic receptor assessed as inhibition constant
[9] = Drug concentration in mouse brain at 10 mg/kg, ip measured after 4 hrs; format: ADME, organism-based; settings: read-out: Ct
[10] = biological target: Sodium-dependent serotonin transporter (Homo sapiens, UniProt P31645); experiment: Binding affinity at human SERT assessed as inhibition constant
[11] = biological target: Muscarinic acetylcholine receptor M1 (Homo sapiens, UniProt P11229); experiment: Binding affinity at human muscarinic M1 receptor assessed as inhibition constant
[12] = biological target: GABA-A receptor; anion channel; experiment: Binding affinity at human GABA A receptor assessed as inhibition constant; format: protein-complex assay
[13] = Ratio of drug concentration in mouse brain to plasma at 10 mg/kg, ip measured after 4 hrs; format: ADME, organism-based; settings: read-out: BPR
[14] = biological target: Muscarinic acetylcholine receptor M2 (Homo sapiens, UniProt P08172); experiment: Binding affinity at human muscarinic M2 receptor assessed as inhibition constant
[15] = biological target: Alpha-2C adrenergic receptor (Homo sapiens, UniProt P18825); experiment: Binding affinity to human alpha 2C adrenergic receptor assessed as inhibition constant
[16] = biological target: Muscarinic acetylcholine receptor M4 (Homo sapiens, UniProt P08173); experiment: Binding affinity at human muscarinic M4 receptor assessed as inhibition constant
[17] = biological target: Sodium-dependent noradrenaline transporter (Homo sapiens, UniProt P23975); experiment: Binding affinity at human Norepinephrine transporter assessed as inhibition constant
[18] = Selectivity ratio of Ki for displacement of [3H](+)-pentazocine from sigma 1 receptor in guinea pig brain to Ki for displacement of [3H](+)-pentazocine from human sigma 1 receptor transfected in HEK293 cells; format: cell-based
[19] = Ratio of unbound drug concentration in mouse brain to plasma at 10 mg/kg, ip measured after 4 hrs; format: ADME, organism-based; settings: read-out: K(p,uu,brain)
[20] = biological target: Muscarinic acetylcholine receptor M3 (Homo sapiens, UniProt P20309); experiment: Binding affinity at human muscarinic M3 receptor assessed as inhibition constant
[21] = biological target: Delta-type opioid receptor (Homo sapiens, UniProt P41143); experiment: Binding affinity at human DOR assessed as inhibition constant
[22] = biological target: 5-hydroxytryptamine receptor 1E (Homo sapiens, UniProt P28566); experiment: Binding affinity to human 5HT1E receptor assessed as inhibition constant
[23] = biological target: Kappa-type opioid receptor (Homo sapiens, UniProt P41145); experiment: Binding affinity at human KOR assessed as inhibition constant
[24] = Selectivity ratio of Ki for displacement of [3H]-ditolylguanidine from human sigma 2 receptor/TMEM97 transfected in HEK293 cells to Ki for displacement of [3H]-ditolylguanidine from sigma 2 receptor/TMEM97 in rat PC-12 cells; format: cell-based
[25] = biological target: Alpha-1B adrenergic receptor (Homo sapiens, UniProt P35368); experiment: Binding affinity to human alpha 1B adrenergic receptor assessed as inhibition constant
[26] = Selectivity ratio of Ki for displacement of [3H](+)-pentazocine from sigma 1 receptor in guinea pig brain to Ki for displacement of [3H]-ditolylguanidine from sigma 2 receptor/TMEM97 in rat PC-12 cells; format: cell-based
[27] = biological target: Serotonin 3 (5-HT3) receptor; experiment: Binding affinity to human 5HT3 receptor assessed as inhibition constant; format: protein-complex assay
[28] = Half-life in mouse at 10 mg/kg, ip; format: ADME, organism-based; settings: in vivo
[29] = biological target: T1, Sigma intracellular receptor 2; experiment: Potency index, ratio of JVW-1601 Ki to test compound Ki for displacement of [3H]-ditolylguanidine from human sigma 2 receptor/TMEM97 transfected in HEK293 cells assessed as inhibition constant in the presence of (+)-pentazocine by competition binding assay; format: cell-based
[30] = biological target: T1, Sigma intracellular receptor 2; experiment: Binding affinity to sigma 2 receptor/TMEM97 (unknown origin) assessed as inhibition constant
[31] = biological target: T2, Sigma non-opioid intracellular receptor 1; experiment: Binding affinity to sigma 1 receptor (unknown origin) assessed as inhibition constant

Sequence of Sigma non-opioid intracellular receptor 1 (Cavia porcellus, UniProt Q60492) (Q60492 whole entry): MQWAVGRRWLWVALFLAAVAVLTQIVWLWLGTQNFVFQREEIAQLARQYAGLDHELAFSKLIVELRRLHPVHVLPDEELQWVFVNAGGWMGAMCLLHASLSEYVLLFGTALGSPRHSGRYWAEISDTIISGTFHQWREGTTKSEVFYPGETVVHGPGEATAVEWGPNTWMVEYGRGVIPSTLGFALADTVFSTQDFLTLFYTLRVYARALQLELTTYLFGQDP
T1 sequence (Q5BJF2 whole entry): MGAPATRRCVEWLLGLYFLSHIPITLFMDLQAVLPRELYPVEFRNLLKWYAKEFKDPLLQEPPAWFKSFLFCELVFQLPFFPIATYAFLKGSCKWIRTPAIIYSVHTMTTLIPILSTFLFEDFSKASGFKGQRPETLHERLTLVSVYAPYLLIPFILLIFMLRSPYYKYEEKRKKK
T2 sequence (Q99720 whole entry): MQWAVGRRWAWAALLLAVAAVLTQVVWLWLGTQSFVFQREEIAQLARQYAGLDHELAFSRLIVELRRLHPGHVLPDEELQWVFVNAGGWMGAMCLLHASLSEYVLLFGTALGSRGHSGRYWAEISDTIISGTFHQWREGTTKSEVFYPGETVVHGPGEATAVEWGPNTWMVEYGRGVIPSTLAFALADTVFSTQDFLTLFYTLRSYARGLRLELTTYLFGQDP
Sequence of Beta-2 adrenergic receptor (P07550 whole entry): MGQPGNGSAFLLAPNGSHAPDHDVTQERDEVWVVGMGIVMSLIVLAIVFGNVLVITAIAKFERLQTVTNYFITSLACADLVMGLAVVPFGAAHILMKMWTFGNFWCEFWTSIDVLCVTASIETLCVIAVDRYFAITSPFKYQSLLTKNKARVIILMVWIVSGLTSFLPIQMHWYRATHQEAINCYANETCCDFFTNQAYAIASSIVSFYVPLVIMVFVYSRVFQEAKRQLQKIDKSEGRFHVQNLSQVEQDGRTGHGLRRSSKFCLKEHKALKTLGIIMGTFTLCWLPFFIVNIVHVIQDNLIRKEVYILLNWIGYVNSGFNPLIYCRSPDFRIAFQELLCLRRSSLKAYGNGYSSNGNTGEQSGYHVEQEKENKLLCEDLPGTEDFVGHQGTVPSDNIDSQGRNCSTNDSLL
Sequence of Sodium-dependent noradrenaline transporter (P23975 whole entry): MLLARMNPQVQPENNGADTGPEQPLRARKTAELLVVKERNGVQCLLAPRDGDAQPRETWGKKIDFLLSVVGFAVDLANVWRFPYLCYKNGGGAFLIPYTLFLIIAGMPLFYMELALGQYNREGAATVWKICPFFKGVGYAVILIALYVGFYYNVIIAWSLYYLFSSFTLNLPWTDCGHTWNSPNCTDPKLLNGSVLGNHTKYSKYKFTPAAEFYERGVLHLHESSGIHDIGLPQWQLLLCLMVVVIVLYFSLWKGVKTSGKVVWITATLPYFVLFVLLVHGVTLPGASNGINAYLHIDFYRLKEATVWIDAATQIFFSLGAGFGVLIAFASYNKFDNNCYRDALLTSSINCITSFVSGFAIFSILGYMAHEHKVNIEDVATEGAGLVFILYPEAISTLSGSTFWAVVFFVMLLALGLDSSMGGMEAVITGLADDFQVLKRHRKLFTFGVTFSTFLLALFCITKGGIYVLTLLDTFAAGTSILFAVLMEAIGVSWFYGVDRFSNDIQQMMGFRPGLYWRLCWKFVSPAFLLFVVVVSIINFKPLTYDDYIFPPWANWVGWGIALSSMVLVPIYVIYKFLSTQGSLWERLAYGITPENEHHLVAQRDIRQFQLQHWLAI
Sequence of Alpha-1B adrenergic receptor (P35368 whole entry): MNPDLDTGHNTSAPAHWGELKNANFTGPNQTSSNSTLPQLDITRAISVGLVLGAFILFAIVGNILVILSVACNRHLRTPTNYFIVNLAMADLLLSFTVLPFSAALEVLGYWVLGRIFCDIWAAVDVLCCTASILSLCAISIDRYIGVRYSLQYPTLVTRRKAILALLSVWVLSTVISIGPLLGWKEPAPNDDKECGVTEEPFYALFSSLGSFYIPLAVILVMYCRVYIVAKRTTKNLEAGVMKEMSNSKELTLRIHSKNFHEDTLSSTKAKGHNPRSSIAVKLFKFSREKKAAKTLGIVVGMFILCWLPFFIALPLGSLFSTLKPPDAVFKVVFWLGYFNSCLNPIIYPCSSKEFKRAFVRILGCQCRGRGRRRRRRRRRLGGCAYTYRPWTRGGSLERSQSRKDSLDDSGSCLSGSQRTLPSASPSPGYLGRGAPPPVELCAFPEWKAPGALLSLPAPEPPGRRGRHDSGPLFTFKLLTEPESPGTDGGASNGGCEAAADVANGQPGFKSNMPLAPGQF
Sequence of Kappa-type opioid receptor (P41145 whole entry): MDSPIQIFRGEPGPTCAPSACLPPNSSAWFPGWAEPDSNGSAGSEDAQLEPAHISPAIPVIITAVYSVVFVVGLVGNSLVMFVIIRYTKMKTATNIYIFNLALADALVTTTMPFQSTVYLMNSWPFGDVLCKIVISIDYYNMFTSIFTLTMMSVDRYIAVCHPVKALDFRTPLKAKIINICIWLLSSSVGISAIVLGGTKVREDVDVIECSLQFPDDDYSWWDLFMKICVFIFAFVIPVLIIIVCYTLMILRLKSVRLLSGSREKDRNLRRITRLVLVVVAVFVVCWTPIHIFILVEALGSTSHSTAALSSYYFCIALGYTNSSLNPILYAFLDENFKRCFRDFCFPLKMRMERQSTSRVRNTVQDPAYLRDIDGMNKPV
Sequence of Beta-3 adrenergic receptor (P13945 whole entry): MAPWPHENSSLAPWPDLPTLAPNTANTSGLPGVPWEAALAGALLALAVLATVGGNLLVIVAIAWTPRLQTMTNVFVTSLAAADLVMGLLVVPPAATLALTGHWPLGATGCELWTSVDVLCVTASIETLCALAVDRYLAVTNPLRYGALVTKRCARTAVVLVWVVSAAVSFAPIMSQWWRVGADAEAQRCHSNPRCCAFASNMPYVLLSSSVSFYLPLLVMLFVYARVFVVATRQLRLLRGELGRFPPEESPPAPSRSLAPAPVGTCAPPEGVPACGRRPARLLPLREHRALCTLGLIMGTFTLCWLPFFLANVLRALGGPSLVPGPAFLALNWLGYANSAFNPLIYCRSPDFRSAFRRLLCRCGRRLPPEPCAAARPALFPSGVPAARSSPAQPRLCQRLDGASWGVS
Sequence of 5-hydroxytryptamine receptor 1E (P28566 whole entry): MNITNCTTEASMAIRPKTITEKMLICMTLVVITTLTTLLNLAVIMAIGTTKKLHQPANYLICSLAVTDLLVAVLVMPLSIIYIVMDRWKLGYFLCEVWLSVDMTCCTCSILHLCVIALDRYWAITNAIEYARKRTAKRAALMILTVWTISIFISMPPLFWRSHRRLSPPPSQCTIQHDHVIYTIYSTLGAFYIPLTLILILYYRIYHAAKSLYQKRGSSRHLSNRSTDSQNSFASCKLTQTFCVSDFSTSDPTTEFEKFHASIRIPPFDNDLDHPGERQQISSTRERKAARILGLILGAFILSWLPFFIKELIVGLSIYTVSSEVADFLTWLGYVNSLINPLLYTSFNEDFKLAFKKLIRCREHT
Sequence of Muscarinic acetylcholine receptor M2 (P08172 whole entry): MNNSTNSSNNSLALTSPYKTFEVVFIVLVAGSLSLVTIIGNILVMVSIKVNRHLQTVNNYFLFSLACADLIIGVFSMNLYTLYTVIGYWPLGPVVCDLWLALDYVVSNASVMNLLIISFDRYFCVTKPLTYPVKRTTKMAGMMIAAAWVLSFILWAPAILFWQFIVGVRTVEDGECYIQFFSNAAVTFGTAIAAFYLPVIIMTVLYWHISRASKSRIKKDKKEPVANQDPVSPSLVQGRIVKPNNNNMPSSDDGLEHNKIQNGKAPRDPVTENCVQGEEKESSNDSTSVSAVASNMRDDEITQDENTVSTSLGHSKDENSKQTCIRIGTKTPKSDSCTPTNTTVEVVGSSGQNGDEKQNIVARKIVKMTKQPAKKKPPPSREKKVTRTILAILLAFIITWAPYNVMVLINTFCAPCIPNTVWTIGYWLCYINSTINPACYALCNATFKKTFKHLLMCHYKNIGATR
Sequence of Delta-type opioid receptor (P41143 whole entry): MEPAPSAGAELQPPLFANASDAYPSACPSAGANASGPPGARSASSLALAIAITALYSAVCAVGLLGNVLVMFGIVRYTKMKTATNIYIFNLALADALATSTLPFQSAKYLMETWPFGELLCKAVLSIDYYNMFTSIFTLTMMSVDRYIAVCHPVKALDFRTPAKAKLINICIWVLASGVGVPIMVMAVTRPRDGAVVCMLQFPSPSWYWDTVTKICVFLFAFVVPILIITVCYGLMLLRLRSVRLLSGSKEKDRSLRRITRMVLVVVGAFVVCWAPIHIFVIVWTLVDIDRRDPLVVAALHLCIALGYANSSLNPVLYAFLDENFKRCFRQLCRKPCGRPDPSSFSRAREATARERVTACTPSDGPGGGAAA
Sequence of Sodium-dependent serotonin transporter (P31645 whole entry): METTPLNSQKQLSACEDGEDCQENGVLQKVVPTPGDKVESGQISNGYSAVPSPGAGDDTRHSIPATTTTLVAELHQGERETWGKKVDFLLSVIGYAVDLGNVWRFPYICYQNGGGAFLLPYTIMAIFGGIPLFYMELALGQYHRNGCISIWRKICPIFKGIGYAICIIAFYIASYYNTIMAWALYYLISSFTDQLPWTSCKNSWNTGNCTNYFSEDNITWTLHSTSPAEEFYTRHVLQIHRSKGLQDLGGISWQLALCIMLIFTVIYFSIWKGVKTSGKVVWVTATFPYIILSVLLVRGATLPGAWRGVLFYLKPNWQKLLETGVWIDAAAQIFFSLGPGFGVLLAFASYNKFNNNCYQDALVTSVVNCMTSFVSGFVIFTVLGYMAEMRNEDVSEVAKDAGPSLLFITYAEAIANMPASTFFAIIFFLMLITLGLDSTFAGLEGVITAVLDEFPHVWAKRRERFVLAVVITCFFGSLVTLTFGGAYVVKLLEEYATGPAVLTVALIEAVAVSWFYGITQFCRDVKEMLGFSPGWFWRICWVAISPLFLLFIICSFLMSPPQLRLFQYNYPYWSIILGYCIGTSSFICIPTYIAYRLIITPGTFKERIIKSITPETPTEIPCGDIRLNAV

- Ki [1]: 53 nM
- Ki [2]: 188 nM
SMILES: CCCN1CCN(c2ccc3c(c2)C(N(C)C(=O)Cc2ccccc2)CCC3)CC1 (configuration not stated)

- Ki [3]: 199 nM
- Ki [4]: 9.4 nM
SMILES: CCCN1CCN(c2ccc3c(c2)C(N(CCC)C(=O)OCc2ccccc2)CCC3)CC1 (configuration not stated)

- Ki [3]: 321 nM
- Ki [4]: 4.6 nM
SMILES: CCCN1CCN(c2ccc3c(c2)C(N(CC)C(=O)OCc2ccccc2)CCC3)CC1 (configuration not stated)

- Ki [1]: 35 nM
- Ki [3]: 187 nM
SMILES: CCCN1CCN(c2ccc3c(c2)C(N(CCC(=O)OCC)C(=O)OCc2ccccc2)CCC3)CC1 (configuration not stated)

- Ki [3]: 223 nM
- Ki [4]: 8.3 nM
SMILES: CC(C)N1CCN(c2ccc3c(c2)C(N(C)C(=O)OCc2ccccc2)CCC3)CC1 (configuration not stated)

- efflux ratio (P-glycoprotein (MDR1)): 1
- Ki (D(2) dopamine receptor): > 10000 nM
- Ki [5]: > 10000 nM
- Ki [6]: > 10000 nM
- Ki (Translocator protein): 8330 nM
- Ki (Mu-type opioid receptor): > 10000 nM
- Ki [7]: > 10000 nM
- Ki [8]: > 10000 nM
- concentration at 4 h [9]: 104 nM
- Ki [10]: > 10000 nM
- Ki [11]: > 10000 nM
- Ki [1]: 33 nM
- Ki [12]: > 10000 nM
- Kp at 4 h [13]: 2.8
- Ki [14]: > 10000 nM
- Ki [2]: 82 nM
- Ki [15]: > 10000 nM
- Ki [16]: > 10000 nM
- Ki [17]: > 10000 nM
- Kp uu at 4 h [19]: 0.36
- Ki [20]: > 10000 nM
- Ki [21]: > 10000 nM
- Ki [22]: > 10000 nM
- Ki [23]: > 10000 nM
- Ki [3]: 200 nM
- Ki [4]: 5.5 nM
- Ki [25]: > 10000 nM
- Ki [27]: > 10000 nM
- half-life [28]: 1.2 h
SMILES: CCCN1CCN(c2ccc3c(c2)C(N(C)C(=O)OCc2ccccc2)CCC3)CC1 (configuration not stated)
- Ratio Ki [18]: 2.5
- Ratio Ki [24]: 6
- Ratio Ki [26]: 36

- Ki [3]: 474 nM
- Ki [4]: 21 nM
SMILES: CN(C(=O)OCc1ccccc1)C1CCCc2ccc(N3CCN(CCCO)CC3)cc21 (configuration not stated)

- Ki [4]: 16.6 nM
SMILES: CCCN1CCN(c2ccc3c(c2)C(N(CCCCCCCCCCCN)C(=O)OCc2ccccc2)CCC3)CC1 (configuration not stated)

- Ki [3]: 887 nM
- Ki [4]: 35 nM
SMILES: CCN1CCN(c2ccc3c(c2)C(N(C)C(=O)OCc2ccccc2)CCC3)CC1 (configuration not stated)

- Ki [1]: 17 nM
- Ki [3]: 21 nM
SMILES: CCCN1CCN(c2ccc3c(c2)C(OCCCc2ccccc2)CCC3)CC1 (configuration not stated)

- Ki [3]: 104 nM
- Ki [4]: 50 nM
SMILES: CCCN1CCN(c2ccc3c(c2)C(OCc2ccccc2)CCC3)CC1 (configuration not stated)

- Ki [3]: 86 nM
- Ki [4]: 2.1 nM
SMILES: CN(C(=O)OCc1ccccc1)C1CCCc2ccc(N3CCN(C4CCCC4)CC3)cc21 (configuration not stated)

- Ki [3]: 2100 nM
- Ki [4]: 7.2 nM
SMILES: CCN(CC)C(=O)CCN1CCN(c2ccc3c(c2)C(N(C)C(=O)OCc2ccccc2)CCC3)CC1 (configuration not stated)

- Ki [3]: 12 nM
- Ki [4]: 26 nM
SMILES: CCCN1CCN(c2cccc3c2CCCC3N(C)C(=O)OCc2ccccc2)CC1 (configuration not stated)

- Ki [1]: 9.6 nM
- Ki [2]: 196 nM
- Ratio Ki [29]: 3.4
SMILES: CCCN1CCN(c2ccc3c(c2)C(N(C)C(=O)/C=C/c2ccccc2)CCC3)CC1 (configuration not stated)

- Ki [1]: 17 nM
- Ratio Ki [29]: 2
- Ki [3]: 973 nM
SMILES: CCCN1CCN(c2ccc3c(c2)C(N(C)C(=O)CCc2ccccc2)CCC3)CC1 (configuration not stated)

- Ki [3]: 1650 nM
- Ki [4]: 4.5 nM
SMILES: CCOC(=O)CCN1CCN(c2ccc3c(c2)C(N(C)C(=O)OCc2ccccc2)CCC3)CC1 (configuration not stated)

- Ki [3]: > 10000 nM
- Ki [4]: 894 nM
SMILES: CCOC(=O)CN1CCN(c2ccc3c(c2)C(N(C)C(=O)OCc2ccccc2)CCC3)CC1 (configuration not stated)

- Ki [1]: 128 nM
- Ki [3]: 1050 nM
SMILES: COCCN1CCN(c2ccc3c(c2)C(N(C)C(=O)OCc2ccccc2)CCC3)CC1 (configuration not stated)

- Ki [30]: 23 nM
- Ki [31]: 248 nM
SMILES: Clc1ccc2c(c1)C1CC2CCCN1CCc1ccccc1 (configuration not stated)

- Ki [3]: 33 nM
- Ki [4]: 25 nM
SMILES: CCCN1CCN(c2ccc3c(c2)C(OC(=O)CCc2ccccc2)CCC3)CC1 (configuration not stated)

- Ki [3]: 266 nM
- Ki [4]: 12 nM
SMILES: CN(C(=O)OCc1ccccc1)C1CCCc2ccc(N3CCN(C4CCC4)CC3)cc21 (configuration not stated)
- Ratio Ki [26]: 41

- Ki [1]: 135 nM
- Ki [3]: 254 nM
SMILES: CCCN1CCN(c2ccc3c(c2)C(N(CCCO)C(=O)OCc2ccccc2)CCC3)CC1 (configuration not stated)

- Ki [3]: 40 nM
- Ki [4]: 13 nM
SMILES: CCCN1CCN(c2ccc3c(c2)CCCC3N(C)C(=O)OCc2ccccc2)CC1 (configuration not stated)

- Ki [3]: 2940 nM
- Ki [4]: 284 nM
SMILES: CN1CCN(c2ccc3c(c2)C(N(C)C(=O)OCc2ccccc2)CCC3)CC1 (configuration not stated)

- Ki [1]: 15 nM
- Ki [3]: 140 nM
SMILES: CCCN1CCN(c2ccc3c(c2)C(OC/C=C/c2ccccc2)CCC3)CC1 (configuration not stated)

- Ki [3]: 16 nM
- Ki [4]: 2.1 nM
SMILES: CN(C(=O)OCc1ccccc1)C1CCCc2ccc(N3CCN(C4CCCCC4)CC3)cc21 (configuration not stated)
- Ratio Ki [26]: 7.6
